Where a name gives a salt, the structure may show the parent alone. Read-outs that look alike come from different tables or passages of the source.
Tested on: Acinetobacter baumannii ATCC17961
Experiment: Antimicrobial susceptibility testing: 90% growth inhibitory concentration (IC90) determination in Iso-Sensitest broth, OD600 growth
Type: cell-based
In short: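 Twofold compound dilutions (e.g. 50 to 0.097 μM final) in Iso-Sensitest broth with ~5×10^(5) CFU/ml, 35±2 °C. OD600 read every 20 min over 16 h; IC90 from growth inhibition during logarithmic phase.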

[1] = Acinetobacter baumannii, ATCC17961, 16 h, read-out: A. baumannii ATCC 17961 IC90 (uM), strain ATCC 17961, OD600 growth over 16 h
[2] = Acinetobacter baumannii, ATCC17961, 16 h, strain ATCC 17961, OD600 growth over 16 h, read-out: A. baumannii ATCC 17961 IC90

Row | IC90 [2] [µM] | SMILES | IC90 [1] [µM] | other results
1 | 0.234 | CCNC(=O)c1ccc(Nc2nccn3c(-c4cn(CC#N)nc4C(F)(F)F)cnc23)cc1CC [Example 113, 4-[[3-[1-(cyanomethyl)-3-(trifluoromethyl)pyrazol-4-yl]imidazo[1,2-a]pyrazin-8-yl]amino]-N,2-diethylbenzamide] |  | 
2 | 1.4 | O=C(NC1CNC1)c1ccc(Nc2nccn3c(-c4c[nH]nc4C(F)(F)F)cnc23)cc1Cl [Example 406, N-(azetidin-3-yl)-2-chloro-4-[[3-[3-(trifluoromethyl)-1H-pyrazol-4-yl]imidazo[1,2-a]pyrazin-8-yl]amino]benzamide] |  | 
3 | 1.23 | NC(=O)c1ccc(Nc2nccn3c(-c4c[nH]nc4C(F)(F)F)cnc23)cc1Cl [Example 404, 2-chloro-4-[[3-[3-(trifluoromethyl)-1H-pyrazol-4-yl]imidazo[1,2-a]pyrazin-8-yl]amino]benzamide] |  | 
4 | 0.239 | CCc1cc(Nc2nccn3c(-c4cn(CC(F)F)nc4C(F)(F)F)cnc23)ccc1C(=O)N[C@H](C)CN [Example 107, N-[(2R)-1-aminopropan-2-yl]-4-[[3-[1-(2,2-difluoroethyl)-3-(trifluoromethyl)pyrazol-4-yl]imidazo[1,2-a]pyrazin-8-yl]amino]-2-ethylbenzamide] |  | 
5 | 0.671 | CCc1cc(Nc2nccn3c(-c4cn(CC#N)nc4C(F)(F)F)cnc23)ccc1C(=O)NCCCNC(=O)[C@@H]1C[C@@H](O)CN1 [Example 754, (2S,4R)-N-(3-(4-((3-(1-(cyanomethyl)-3-(trifluoromethyl)-1H-pyrazol-4-yl)imidazo[1,2-a]pyrazin-8-yl)amino)-2-ethylbenzamido)propyl)-4-hydroxypyrrolidine-2-carboxamide] |  | 
6 | 0.251 | CCc1cc(Nc2nccn3c(-c4cn(Cc5cc[nH]n5)nc4C(F)(F)F)cnc23)ccc1C(=O)NC [Example 15, 2-ethyl-N-methyl-4-[[3-[1-(1H-pyrazol-3-ylmethyl)-3-(trifluoromethyl)pyrazol-4-yl]imidazo[1,2-a]pyrazin-8-yl]amino]benzamide] |  | 
7 | 1.61 | CCc1cc(Nc2nccn3c(-c4cn(CC(N)=O)nc4C(F)(F)F)cnc23)ccc1C(=O)NCCCNC(=O)[C@@H]1CCCN1 [Example 789, (S)-N-(3-(4-((3-(1-(2-amino-2-oxoethyl)-3-(trifluoromethyl)-1H-pyrazol-4-yl)imidazo [1,2-a]pyrazin-8-yl)amino)-2-ethylbenzamido)propyl)pyrrolidine-2-carboxamide] |  | 
8 | 2.23 | O=C(CNC(=O)c1ccc(Nc2nccn3c(-c4c[nH]nc4C(F)(F)F)cnc23)cc1Cl)N[C@H]1CCNC1 [Example 125, 2-chloro-N-[2-oxo-2-[[(3S)-pyrrolidin-3-yl]amino]ethyl]-4-[[3-[3-(trifluoromethyl)-1H-pyrazol-4-yl]imidazo[1,2-a]pyrazin-8-yl]amino]benzamide] |  | 
9 | 0.116 | O=C(c1ccc(Nc2nccn3c(-c4c[nH]nc4C(F)(F)F)cnc23)cc1Cl)N1CCN(C(=O)[C@]2(O)CCCNC2)CC1 [Example 247, [2-chloro-4-[[3-[3-(trifluoromethyl)-1H-pyrazol-4-yl]imidazo[1,2-a]pyrazin-8-yl]amino]phenyl]-[4-[(3S)-3-hydroxypiperidine-3-carbonyl]piperazin-1-yl]methanone] |  | 
10 | 0.167 | C#CCn1cc(-c2cnc3c(Nc4ccc(C(=O)N[C@@H](C)CN)c(CC)c4)nccn23)c(C(F)(F)F)n1 [Example 55, N-[(2S)-1-aminopropan-2-yl]-2-ethyl-4-[[3-[1-prop-2-ynyl-3-(trifluoromethyl)pyrazol-4-yl]imidazo[1,2-a]pyrazin-8-yl]amino]benzamide] |  | 
11 | 0.11 | O=C(c1ccc(Nc2nccn3c(-c4cn(Cc5cc[nH]n5)nc4C(F)(F)F)cnc23)cc1Cl)N1CCNCC1 [Example 177, [2-chloro-4-[[3-[1-(1H-pyrazol-3-ylmethyl)-3-(trifluoromethyl)pyrazol-4-yl]imidazo[1,2-a]pyrazin-8-yl]amino]phenyl]-piperazin-1-ylmethanone] |  | 
12 | 1.01 | CCc1cc(Nc2nccn3c(-c4c[nH]nc4C(F)(F)F)cnc23)ccc1C(=O)NCC1CC1N (stereo not shown) [Example 776, N-((2-aminocyclopropyl)methyl)-2-ethyl-4-((3-(3-(trifluoromethyl)-1H-pyrazol-4-yl)imidazo [1,2-a]pyrazin-8-yl)amino) benzamide formate] |  | 
13 | 0.081 | C#CCn1cc(-c2cnc3c(Nc4ccc(C(=O)NCCOCCN)c(CC)c4)nccn23)c(C(F)(F)F)n1 [Example 174, N-[2-(2-aminoethoxy)ethyl]-2-ethyl-4-[[3-[1-prop-2-ynyl-3-(trifluoromethyl)pyrazol-4-yl]imidazo[1,2-a]pyrazin-8-yl]amino]benzamide] |  | 

Further lines, the molecule ahead of its results:

Row | SMILES | IC90 [2] [µM] | IC90 [1] [µM] | other results
14 | CCc1cc(Nc2nccn3c(-c4cn(CC(F)F)nc4C(F)(F)F)cnc23)ccc1C(=O)NCC(=O)NC1CC(N)C1 (stereo not shown) [Example 642, N-[2-[(3-aminocyclobutyl)amino]-2-oxo-ethyl]-4-[[3-[1-(2,2-difluoroethyl)-3-(trifluoromethyl)pyrazol-4-yl]imidazo[1,2-a]pyrazin-8-yl]amino]-2-ethyl-benzamide formate] |  | 0.232 | 
15 | CCOC(=O)Cn1cc(-c2cnc3c(Nc4ccc(C(=O)NCCOCCN)c(CC)c4)nccn23)c(C(F)(F)F)n1 [Example 310, ethyl 2-[4-[8-[4-[2-(2-aminoethoxy)ethylcarbamoyl]-3-ethylanilino]imidazo [1,2-a]pyrazin-3-yl]-3-(trifluoromethyl)pyrazol-1-yl]acetate formate] |  | 0.719 | 
16 | Cc1cc(Nc2nccn3c(-c4c[nH]nc4C(F)(F)F)cnc23)ccc1C(=O)N1CCN(C(=O)[C@@H]2C[C@@H](O)CN2)CC1 [Example 459, formic acid; [4-[(2S,4R)-4-hydroxypyrrolidine-2-carbonyl)piperazin-1-yl]-[2-methyl-4-[[3-[3-(trifluoromethyl)-1H-pyrazol-4-yl]imidazo[1,2-a]pyrazin-8-yl]amino]phenyl]methanone] |  |  | IC90 (read-out: A. baumannii ATCC 17961 IC90, strain ATCC 17961, OD600 growth over 16 h): 0.762 µM
17 | C[C@@H](NC(=O)c1ccc(Nc2nccn3c(-c4cn(CC#N)nc4C(F)(F)F)cnc23)cc1Cl)C(=O)N1CCNCC1 [Example 647, 2-chloro-4-[[3-[1-(cyanomethyl)-3-(trifluoromethyl)pyrazol-4-yl]imidazo[1,2-a]pyrazin-8-yl]amino]-N-[(1R)-1-methyl-2-oxo-2-piperazin-1-yl-ethyl]benzamide formate] |  | 0.244 | 
18 | Cc1cc(Nc2nccn3c(-c4cn(CC#N)nc4C(F)(F)F)cnc23)ccc1C(=O)NCC(=O)N1CC(N)C1 [Example 751, N-[2-(3-aminoazetidin-1-yl)-2-oxo-ethyl]-4-[[3-[1-(cyanomethyl)-3-(trifluoromethyl)pyrazol-4-yl]imidazo[1,2-a]pyrazin-8-yl]amino]-2-methyl-benzamide formate] |  | 0.627 | 
19 | N#CCn1cc(-c2cnc3c(Nc4ccc(C(=O)N5CCN(C(=O)CCN)CC5)c(Cl)c4)nccn23)c(C(F)(F)F)n1 [Example 286, 2-[4-[8-[4-[4-(3-aminopropanoyl)piperazine-1-carbonyl]-3-chloroanilino]imidazo[1,2-a]pyrazin-3-yl]-3-(trifluoromethyl)pyrazol-1-yl]acetonitrile formate] |  | 0.226 | 
20 | CCc1cc(Nc2nccn3c(-c4cn(CC(F)F)nc4C(F)(F)F)cnc23)ccc1C(=O)NCCCNC(=O)[C@@H]1CC[C@H](N)C1 [Example 543, N-(3-((1R,3S)-3-aminocyclopentane-1-carboxamido)propyl)-4-((3-(1-(2,2-difluoroethyl)-3-(trifluoromethyl)-1H-pyrazol-4-yl)imidazo[1,2-a]pyrazin-8-yl)amino)-2-ethylbenzamide formate] |  | 0.162 | 
21 | CCc1cc(Nc2nccn3c(-c4cn(CCF)nc4C(F)F)cnc23)ccc1C(=O)N1CCN(C(=O)[C@@H]2C[C@@H](O)CN2)CC1 [Example 795, (4-(4-((3-(3-(difluoromethyl)-1-(2-fluoroethyl)-1H-pyrazol-4-yl)imidazo[1,2-a]pyrazin-8-yl)amino)-2-ethylbenzoyl)piperazin-1-yl)((2S,4R)-4-hydroxypyrrolidin-2-yl)methanone] | 2.23 |  | 
22 | CCc1cc(Nc2nccn3c(-c4cn(CC(F)F)nc4C(F)(F)F)cnc23)ccc1C(=O)NCC(=O)N1CCC(N)CC1 [Example 666, N-[2-(4-amino-1-piperidyl)-2-oxo-ethyl]-4-[[3-[1-(2,2-difluoroethyl)-3-(trifluoromethyl)pyrazol-4-yl]imidazo[1,2-a]pyrazin-8-yl]amino]-2-ethyl-benzamide formate] |  | 0.291 | 
23 | CCc1cc(Nc2nccn3c(-c4cn(CC(F)F)nc4C(F)(F)F)cnc23)ccc1C(=O)NCC(=O)NCCN(C)C [Example 668, 4-[[3-[1-(2,2-difluoroethyl)-3-(trifluoromethyl)pyrazol-4-yl]imidazo[1,2-a]pyrazin-8-yl]amino]-N-[2-[2-(dimethylamino)ethylamino]-2-oxo-ethyl]-2-ethyl-benzamide formate] |  | 0.294 | 
24 | CCc1cc(Nc2nccn3c(-c4cn(CCC(F)(F)F)nc4C(F)(F)F)cnc23)ccc1C(=O)NCCOCCN [Example 32, N-[2-(2-aminoethoxy)ethyl]-2-ethyl-4-[[3-[3-(trifluoromethyl)-1-(3,3,3-(trifluoropropyl)pyrazol-4-yl]imidazo[1,2-a]pyrazin-8-yl]amino]benzamide formate] |  |  | IC90 (strain ATCC 17961, OD600 growth over 16 h, read-out: A. baumannii ATCC 17961 IC90): 0.19 µM
25 | CCc1cc(Nc2nccn3c(-c4cn(CC(F)F)nc4C(F)(F)F)cnc23)ccc1C(=O)NCCCNC(=O)CCN [Example 630, N-(3-(3-aminopropanamido)propyl)-4-((3-(1-(2,2-difluoroethyl)-3-(trifluoromethyl)-1H-pyrazol-4-yl)imidazo[1,2-a]pyrazin-8-yl)amino)-2-ethylbenzamide formate] |  | 0.206 | 
